Test results: patent US8927130B2, “Electrolyte for redox flow battery and redox flow battery including the same” (Samsung Electronics Co., Ltd., priority 2011, dated 2015)

Assay: Cyclic voltammetry of electrolytes for 100 cycles
Format: physicochemical
Details: in the electrolytes of Examples 1 and 2 (GBL, 0.5 M TEABF4), cyclic voltammetry 100 cycles
Protocol: A current value as a function of potential was measured for 100 cycles by using each of the electrolytes of Examples 1 and 2, at a potential scan rate of 10 mV/s and in a potential scan range of about −2 V to about 1.25 V. A cell for measuring the cyclic voltammogram included an Ag/Ag^+ electrode in which 0.3 M of AgNO3 was dissolved in acetonitrile as a solvent as a reference electrode, carbon felt as a working electrode, and platinum as a counter electrode. The measurement results are illustrated in FIGS. 6A and 6B.

O=S(=O)([N-]S(=O)(=O)C(F)(F)F)C(F)(F)F.O=S(=O)([N-]S(=O)(=O)C(F)(F)F)C(F)(F)F.[Ni+2].c1ccc(-c2ccccn2)nc1.c1ccc(-c2ccccn2)nc1.c1ccc(-c2ccccn2)nc1 [Preparation Example 1, Ni(bpy)3(TFSI)2]
stability of the redox couple of the metal salt in the electrolyte: stable
